From patent US11623919B2, “Heterocyclic P2X7 antagonists” (AXXAM S.P.A., priority 2017, dated 2023)

What was measured:
P2X7 receptor [1] = molecular target: T1, P2X7 receptor (Rattus norvegicus, UniProt Q64663); assay: Screen Quest Fluo-8 No Wash Calcium Assay (Bz-ATP evoked Ca2+ influx, FLIPR); type: cell-based; conditions: rP2X7; HEK-293 cells stably transfected with P2X7 receptor, Bz-ATP at EC80, Fluo-8 NW; potency ranges A-D
T1 construct: rP2X7 (IC50; nM); other: rP2X7; HEK-293 cells stably transfected with P2X7 receptor, Bz-ATP at EC80, Fluo-8 NW; potency
T1 sequence (Q64663 1-595): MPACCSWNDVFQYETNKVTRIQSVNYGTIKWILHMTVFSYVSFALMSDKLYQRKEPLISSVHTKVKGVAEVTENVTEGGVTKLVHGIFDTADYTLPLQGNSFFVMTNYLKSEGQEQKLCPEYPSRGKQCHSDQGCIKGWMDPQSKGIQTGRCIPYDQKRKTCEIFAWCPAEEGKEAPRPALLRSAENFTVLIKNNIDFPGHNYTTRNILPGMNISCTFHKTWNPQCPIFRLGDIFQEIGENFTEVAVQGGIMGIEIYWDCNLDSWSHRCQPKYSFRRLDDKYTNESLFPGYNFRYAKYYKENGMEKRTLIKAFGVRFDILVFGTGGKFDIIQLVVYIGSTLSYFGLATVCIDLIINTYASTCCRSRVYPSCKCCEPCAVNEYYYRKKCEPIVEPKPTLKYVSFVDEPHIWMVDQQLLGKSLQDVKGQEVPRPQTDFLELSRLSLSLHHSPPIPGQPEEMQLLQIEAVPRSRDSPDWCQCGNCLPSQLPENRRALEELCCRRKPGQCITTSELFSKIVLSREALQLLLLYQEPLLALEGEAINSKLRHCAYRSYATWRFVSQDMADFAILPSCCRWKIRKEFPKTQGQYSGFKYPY
How it was run: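 Compounds were added to Fluo-8-loaded P2X7-transfected HEK-293 cells 5 min before an EC80 Bz-ATP challenge, and Ca2+ influx was then recorded for 3 min. Buffer held 0.3 mM Ca2+ and no Mg2+. Inhibition was normalised to A438079, giving IC50 values.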

P2X7 receptor [2] = molecular target: T2, P2X7 receptor (Homo sapiens, UniProt Q99572); assay: YO-PRO-1 uptake assay; type: cell-based; set-up: expressed in transfected cells; conditions: HEK-293 cells stably transfected with P2X7 receptor; Bz-ATP EC80 (30 μM); Low Divalent Cation Assay Buffer
T2 sequence (Q99572 1-595): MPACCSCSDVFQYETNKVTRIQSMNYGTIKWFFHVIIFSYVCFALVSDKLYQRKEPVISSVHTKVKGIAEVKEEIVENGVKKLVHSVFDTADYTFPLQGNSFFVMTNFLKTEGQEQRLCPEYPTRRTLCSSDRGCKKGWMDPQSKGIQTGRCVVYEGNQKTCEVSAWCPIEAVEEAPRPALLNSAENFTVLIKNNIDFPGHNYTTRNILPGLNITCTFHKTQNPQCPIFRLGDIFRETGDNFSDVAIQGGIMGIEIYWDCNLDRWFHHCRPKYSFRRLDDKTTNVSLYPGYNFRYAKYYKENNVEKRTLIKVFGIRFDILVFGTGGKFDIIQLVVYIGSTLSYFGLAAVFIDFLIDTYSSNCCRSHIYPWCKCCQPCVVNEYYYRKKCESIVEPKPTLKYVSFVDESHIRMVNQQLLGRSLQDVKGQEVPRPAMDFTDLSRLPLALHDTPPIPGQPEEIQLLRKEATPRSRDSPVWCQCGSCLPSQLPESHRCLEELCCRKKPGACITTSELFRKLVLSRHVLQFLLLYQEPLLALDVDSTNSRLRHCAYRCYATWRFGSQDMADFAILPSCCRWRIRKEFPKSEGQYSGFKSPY
Text: YO-PRO®-1 is a fluorescent DNA-binding dye with a MW of 374 Da (Molecular Probes®, cat. Y3603). This method is based upon the presumed ability of YO-PRO®-1 to enter through the dilated or “large pore form” of P2X7 receptor and to bind to intracellular DNA whereupon it increases many fold its fluorescence intensity. The dye ha an absorption spectrum compatible with excitation at 488 nm by argon laser sources and its emission wavelength is in the range of 515-575 nm. The aim of this assay was to validate the interaction of antagonists with P2X7 receptor using an alternative readout to Ca2+-sensitive fluorescent dyes.
HEK-293 cells stably transfected with P2X7 receptor were seeded overnight un growth medium at 20,000 cell/well in 384-well plate. 24 hours later, the medium was removed, the cells were washed with Low Divalent Cation Assay Buffer (0.3 mM Ca^2+ and 0 mM Mg^2+) and then pre-loaded with 20 μL/w of 5 μM YO-PRO®-1 dye.
FLIPRTETRA fluorescence measurement immediately started. Then 10 μL/w of test compounds and reference antagonist A438079 at 3×-concentration were injected with the FLIPRTETRA and the kinetic response over a period of five minutes was monitored. A second injection of 10 μL/w of 3× Bz-ATP EC80 (30 μM) was performed with the FLIPRTETRA and the signal of the emitted fluorescence was recorded for additional 60 minutes. All the experiment was carried out with a Low Divalent Cation Assay Buffer (0.3 mM Ca^2+ and 0 mM Mg^2+).
The effect of the test compounds was measured as percent inhibition vs the reference antagonist and IC50 values were calculated accordingly.

SMILES | IC50 (P2X7 receptor [1]) [nM] | IC50 (P2X7 receptor [2]) [nM]
O=c1onc(Cc2c(F)cccc2Cl)n1Cc1cccc(F)c1 [Example 26, 3-[(2-chloro-6-fluorophenyl)methyl]-4-[(3-fluorophenyl)methyl]-4,5-dihydro-1,2,4-oxadiazol-5-one] | < 200 | 329
CC(c1ccc(F)cc1)n1c(Cc2c(F)cccc2Cl)noc1=O (centres unmarked) [Example 48, 3-[(2-chloro-6-fluorophenyl)methyl]-4-[1-(4-fluorophenyl)ethyl]-4,5-dihydro-1,2,4-oxadiazol-5-one] | 200 to 1000 | 340
O=c1snc(Cc2c(F)cccc2Cl)n1CC1CCCCC1 [Example 140, 3-[(2-chloro-6-fluorophenyl)methyl]-4-(cyclohexylmethyl)-4,5-dihydro-1,2,4-thiadiazol-5-one] | 200 to 1000 | 181
O=c1onc(Cc2ccccc2C(F)(F)F)n1CC1CCCCC1 [Example 116, 4-(cyclohexylmethyl)-3-{[2-(trifluoromethyl)phenyl]methyl}-4,5-dihydro-1,2,4-oxadiazol-5-one] | 200 to 1000 | 284
O=c1onc(Cc2c(F)cccc2Cl)n1CC1CCC(F)(F)CC1 [Example 84, 3-[(2-chloro-6-fluorophenyl)methyl]-4-[(4,4-difluorocyclohexyl)methyl]-4,5-dihydro-1,2,4-oxadiazol-5-one] | < 200 | 3.4
O=c1onc(Cc2c(F)cccc2Cl)n1CC1CCCCC1(F)F (centres unmarked) [Example 97, 3-[(2-chloro-6-fluorophenyl)methyl]-4-[(2,2-difluorocyclohexyl)methyl]-4,5-dihydro-1,2,4-oxadiazol-5-one] | < 200 | 193
O=c1onc(Cc2cccc(Cl)c2Cl)n1Cc1ccc(F)cc1 [Example 71, 3-[(2,3-dichlorophenyl)methyl]-4-[(4-fluorophenyl)methyl]-4,5-dihydro-1,2,4-oxadiazol-5-one] | 1000 to 10000 | 461
O=c1onc(Cc2ccc(F)cc2F)n1CC1CCCCC1 [Example 119, 4-(cyclohexylmethyl)-3-[(2,4-difluorophenyl)methyl]-4,5-dihydro-1,2,4-oxadiazol-5-one] | < 200 | 547
Cc1cc(F)ccc1Cn1c(Cc2c(F)cccc2Cl)noc1=O [Example 25, 3-[(2-chloro-6-fluorophenyl)methyl]-4-[(4-fluoro-2-methylphenyl)methyl]-4,5-dihydro-1,2,4-oxadiazol-5-one] | 200 to 1000 | 115
O=c1onc(Cc2c(F)cccc2Cl)n1CC1CCCCCC1 [Example 92, 3-[(2-chloro-6-fluorophenyl)methyl]-4-(cycloheptylmethyl)-4,5-dihydro-1,2,4-oxadiazol-5-one] | < 200 | 42
O=c1onc(Cc2ccc(F)cc2Cl)n1CC1CCCCC1 [Example 114, 3-[(2-chloro-4-fluorophenyl)methyl]-4-(cyclohexylmethyl)-4,5-dihydro-1,2,4-oxadiazol-5-one] | < 200 | 129
O=c1onc(Cc2ccc(F)cc2Cl)n1Cc1ccc(F)cc1 [Example 73, 3-[(2-chloro-4-fluorophenyl)methyl]-4-[(4-fluorophenyl)methyl]-4,5-dihydro-1,2,4-oxadiazol-5-one] | 200 to 1000 | 670
O=c1onc(Cc2ccc(Cl)cc2Cl)n1CC1CCCCC1 [Example 118, 4-(cyclohexylmethyl)-3-[(2,4-dichlorophenyl)methyl]-4,5-dihydro-1,2,4-oxadiazol-5-one] | 200 to 1000 | 618
O=c1onc(Cc2c(F)cccc2Cl)n1CC1CCCC1 [Example 85, 3-[(2-chloro-6-fluorophenyl)methyl]-4-(cyclopentylmethyl)-4,5-dihydro-1,2,4-oxadiazol-5-one] | < 200 | 131
O=c1onc(Cc2ccccc2F)n1CC1CCCCC1 [Example 120, 4-(cyclohexylmethyl)-3-[(2-fluorophenyl)methyl]-4,5-dihydro-1,2,4-oxadiazol-5-one] | < 200 | 590
O=c1onc(CC2CCC(F)(F)CC2)n1Cc1c(F)cccc1Cl [Example 132, 4-[(2-chloro-6-fluorophenyl)methyl]-3-[(4,4-difluorocyclohexyl)methyl]-4,5-dihydro-1,2,4-oxadiazol-5-one] | < 200 | 32
O=c1onc(Cc2c(F)cccc2Cl)n1CC1CCC(F)(F)C1 (racemic) [Example 128, 3-[(2-chloro-6-fluorophenyl)methyl]-4-[(3,3-difluorocyclopentyl)methyl]-4,5-dihydro-1,2,4-oxadiazol-5-one] | < 200 | 115
O=c1onc(Cc2cccc(Cl)c2Cl)n1CC1CCCCC1 [Example 115, 4-(cyclohexylmethyl)-3-[(2,3-dichlorophenyl)methyl]-4,5-dihydro-1,2,4-oxadiazol-5-one] | 200 to 1000 | 399
O=c1onc(Cc2c(F)cccc2Cl)n1CC12CCC(CC1)C2 [Example 91, 4-{bicyclo [2.2.1]heptan-1-ylmethyl}-3-[(2-chloro-6-fluorophenyl)methyl]-4,5-dihydro-1,2,4-oxadiazol-5-one] | < 200 | 45
CC1CCCCC1Cn1c(Cc2c(F)cccc2Cl)noc1=O (centres unmarked) [Example 87, 3-[(2-chloro-6-fluorophenyl)methyl]-4-[(2-methylcyclohexyl)methyl]-4,5-dihydro-1,2,4-oxadiazol-5-one] | < 200 | 82
O=c1onc(Cc2c(F)cccc2Cl)n1CC1(F)CCCCC1 [Example 96, 3-[(2-chloro-6-fluorophenyl)methyl]-4-[(1-fluorocyclohexyl)methyl]-4,5-dihydro-1,2,4-oxadiazol-5-one] | 200 to 1000 | 523
O=c1onc(Cc2c(F)cccc2Cl)n1CCC1CCCCC1 [Example 142, 3-(2-chloro-6-fluorobenzyl)-4-(2-cyclohexylethyl)-1,2,4-oxadiazol-5(4H)-one] | 200 to 1000 | 467
O=c1onc(Cc2c(F)cccc2Cl)n1CC1CCCCO1 (centres unmarked) [Example 94, 3-[(2-chloro-6-fluorophenyl)methyl]-4-(oxan-2-ylmethyl)-4,5-dihydro-1,2,4-oxadiazol-5-one] | 200 to 1000 | 435
O=c1onc(Cc2c(F)cccc2Cl)n1Cc1ccc(C(F)(F)F)o1 [Example 66, 3-[(2-chloro-6-fluorophenyl)methyl]-4-{[5-(trifluoromethyl)furan-2-yl]methyl}-4,5-dihydro-1,2,4-oxadiazol-5-one] | 200 to 1000 | 456
Cc1noc(C)c1Cc1noc(=O)n1CC1CCCCC1 [Example 210, 4-(cyclohexylmethyl)-3-[(dimethyl-1,2-oxazol-4-yl)methyl]-4,5-dihydro-1,2,4-oxadiazol-5-one] | 200 to 1000 | 184
